How the values were obtained:
[1] = molecular target: T1, cloned human KOR (hKOR), kappa-opioid receptor (Homo sapiens, UniProt P41145)
[2] = molecular target: T1, cloned human KOR (hKOR), kappa-opioid receptor; experiment: biochemical

T1 sequence (P41145 whole entry): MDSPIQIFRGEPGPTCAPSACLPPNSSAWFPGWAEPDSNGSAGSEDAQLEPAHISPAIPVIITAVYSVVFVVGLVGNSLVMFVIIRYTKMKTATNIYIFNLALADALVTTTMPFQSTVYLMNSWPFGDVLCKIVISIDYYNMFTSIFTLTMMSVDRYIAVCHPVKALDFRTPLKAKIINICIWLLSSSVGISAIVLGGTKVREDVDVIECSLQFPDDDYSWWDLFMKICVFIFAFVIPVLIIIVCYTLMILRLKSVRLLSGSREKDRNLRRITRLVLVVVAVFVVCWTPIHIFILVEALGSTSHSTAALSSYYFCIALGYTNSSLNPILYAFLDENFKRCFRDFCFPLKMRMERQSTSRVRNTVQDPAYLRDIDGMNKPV

SMILES: CNC1(c2ccccc2Cl)CCCCC1=O (centres unmarked) [ketamine]
- Ki [1]: 25 µM
- EC50 [2]: 29 µM

— PMC2869248 (Psychopharmacology, 2010)
